The test system of assay [1] is Candida albicans. The experiment in a line: Antifungal activity against fluconazole- resistant Candida albicans 17# assessed as fungal growth inhibition measured after 72 hrs by double dilution method. The format is functional.
The next assay concerns Pichia kudriavzevii. The assay can be described thus: Antifungal activity against Candida krusei ATCC 6258 assessed as fungal growth inhibition measured after 72 hrs by double dilution method. The format is functional.
The test system of assay [2] is Candida albicans. The experiment in a line: Antifungal activity against fluconazole -resistant Candida albicans 904 assessed as fungal growth inhibition measured after 72 hrs by double dilution method. In kind it is functional.
For assay [3], the system named is Candida albicans. The experiment in a line: Antifungal activity against fluconazole -resistant Candida albicans CaR assessed as fungal growth inhibition measured after 72 hrs by double dilution method. The format is functional.
Another assay relates to Aspergillus fumigatus. The assay can be described thus: Antifungal activity against Aspergillus fumigatus KM8001 assessed as fungal growth inhibition measured after 72 hrs by double dilution method. In kind it is functional.
Assay [4] has as its system Candida albicans. The experiment in a line: Antifungal activity against Candida albicans ATCC SC5314 assessed as fungal growth inhibition measured after 72 hrs by double dilution method. In kind it is functional.
Assay [5] relates to Candida albicans. The assay can be described thus: Antifungal activity against fluconazole -resistant Candida albicans 632 assessed as fungal growth inhibition measured after 72 hrs by double dilution method. In kind it is functional.
For a further assay, the system named is Candida tropicalis. The experiment in a line: Antifungal activity against Candida tropicalis ATCC 1369 assessed as fungal growth inhibition measured after 72 hrs by double dilution method. In kind it is functional.
A further assay concerns Cryptococcus neoformans. The experiment in a line: Antifungal activity against Cryptococcus neoformans ZKCC 2209 assessed as fungal growth inhibition measured after 72 hrs by double dilution method. The format is functional.
The subject of assay [6] is Candida albicans. The experiment in a line: Antifungal activity against fluconazole -resistant Candida albicans 901 assessed as fungal growth inhibition measured after 72 hrs by double dilution method. The format is functional.
The test system of assay [7] is Candida albicans. The experiment in a line: Antifungal activity against Candida albicans ATCC SC5314 assessed as induction of ROS production by measuring fluorescence intensity incubated for 12 hrs by KGT010-1 staining based fluorescence microscopy. The format is functional, organism-based.

Values after ≈ are worked out from the molar mass of the structure shown. Active and inactive are the calls of the source. No cut-off for these calls is given here. A value given as a limit tells only on which side of the number the result lay.

With `CC(=O)N1CCN(c2ccc(OCC3COC(Cn4ccnc4)(c4ccc(Cl)cc4Cl)O3)cc2)CC1` (stereo unspecified) [KETOCONAZOLE], the MIC50 was 4 µg/mL (≈ 7.53 µM) with Candida albicans [1]; 0.5 µg/mL (≈ 0.941 µM) in the assay with Pichia kudriavzevii; > 8 µg/mL in the assay on Candida albicans [2]; 4 µg/mL (≈ 7.53 µM) in the assay on Candida albicans [3]; > 8 µg/mL in the assay on Aspergillus fumigatus; 0.5 µg/mL (≈ 0.941 µM) in the assay with Candida albicans [4]. Moreover, the MIC50 was > 8 µg/mL in the assay with Candida albicans [5], 0.5 µg/mL (≈ 0.941 µM) in the assay with Candida tropicalis, 1 µg/mL (≈ 1.88 µM) in the assay with Cryptococcus neoformans and 4 µg/mL (≈ 7.53 µM) in the assay on Candida albicans [6].
On to `COC(=O)[C@@H](Cn1ccnc1)NC(=O)[C@@H](C)c1ccc(-c2ccccc2)c(F)c1`, for which the MIC50 in the assay on Pichia kudriavzevii is 0.5 µg/mL (≈ 1.26 µM); with Aspergillus fumigatus, > 8 µg/mL; in the assay with Candida albicans [4], 1 µg/mL (≈ 2.53 µM); in the assay on Candida tropicalis, 2 µg/mL (≈ 5.06 µM); with Cryptococcus neoformans, 0.5 µg/mL (≈ 1.26 µM).
As for `C[C@H](C(=O)NC(Cn1ccnc1)C(=O)c1ccccc1)c1cccc(C(=O)c2ccccc2)c1` (stereo partly specified), the MIC50 with Pichia kudriavzevii was determined as 0.5 µg/mL (≈ 1.11 µM); with Aspergillus fumigatus, 4 µg/mL (≈ 8.86 µM); in the assay on Candida albicans [4] it was 1 µg/mL (≈ 2.21 µM); with Candida tropicalis, 0.5 µg/mL (≈ 1.11 µM); with Cryptococcus neoformans, 1 µg/mL (≈ 2.21 µM).
With `CC(C)NC(=O)[C@@H](Cn1ccnc1)NC(=O)[C@@H](C)c1ccc(-c2ccccc2)c(F)c1`, the MIC50 with Pichia kudriavzevii was 1 µg/mL (≈ 2.37 µM); with Aspergillus fumigatus it was > 8 µg/mL; with Candida albicans [4] it was 0.5 µg/mL (≈ 1.18 µM); with Candida tropicalis, 2 µg/mL (≈ 4.73 µM); with Cryptococcus neoformans it was 0.5 µg/mL (≈ 1.18 µM).
In the case of `C[C@H](C(=O)NC(Cn1ccnc1)C(=O)c1ccccc1)c1ccc(-c2ccccc2)c(F)c1` (stereo partly specified), the MIC50 is 0.25 µg/mL (≈ 0.566 µM) in the assay on Pichia kudriavzevii; > 8 µg/mL in the assay with Aspergillus fumigatus; 0.5 µg/mL (≈ 1.13 µM) in the assay on Candida albicans [4]; 0.5 µg/mL (≈ 1.13 µM) in the assay on Candida tropicalis; 0.5 µg/mL (≈ 1.13 µM) with Cryptococcus neoformans.
Take `CC(C)OC(=O)[C@@H](Cn1ccnc1)NC(=O)[C@@H](C)c1ccc(-c2ccccc2)c(F)c1`: the MIC50 is 3 µg/mL (≈ 7.08 µM) in the assay with Pichia kudriavzevii; > 8 µg/mL in the assay on Aspergillus fumigatus; 0.5 µg/mL (≈ 1.18 µM) in the assay on Candida albicans [4]; 1 µg/mL (≈ 2.36 µM) in the assay with Candida tropicalis; 0.25 µg/mL (≈ 0.59 µM) in the assay on Cryptococcus neoformans.
The like results for `COC(=O)[C@@H](Cn1ccnc1)NC(=O)[C@@H](C)c1ccc2cc(OC)ccc2c1` were, in that order, 1 µg/mL (≈ 2.62 µM), > 8 µg/mL, 0.25 µg/mL (≈ 0.655 µM), 1 µg/mL (≈ 2.62 µM) and 0.58 µg/mL (≈ 1.52 µM).
As for `CC(C)OC(=O)[C@@H](Cn1ccnc1)NC(=O)[C@@H](C)c1cccc(C(=O)c2ccccc2)c1`, the MIC50 in the assay on Pichia kudriavzevii is 0.5 µg/mL (≈ 1.15 µM); in the assay on Aspergillus fumigatus, > 8 µg/mL; in the assay on Candida albicans [4], 1 µg/mL (≈ 2.31 µM); in the assay on Candida tropicalis, 2 µg/mL (≈ 4.61 µM); in the assay on Cryptococcus neoformans, 1 µg/mL (≈ 2.31 µM).
With `COc1ccc2cc([C@H](C)C(=O)N[C@H](Cn3cncn3)C(=O)OC(C)C)ccc2c1`, the MIC50 in the assay with Pichia kudriavzevii is 1 µg/mL (≈ 2.44 µM); with Aspergillus fumigatus, 4 µg/mL (≈ 9.74 µM); in the assay with Candida albicans [4] it was 0.25 µg/mL (≈ 0.609 µM); in the assay on Candida tropicalis, 0.5 µg/mL (≈ 1.22 µM); in the assay with Cryptococcus neoformans it was 0.5 µg/mL (≈ 1.22 µM).
For `COc1ccc2cc([C@H](C)C(=O)NC(Cn3ccnc3)C(=O)c3ccccc3)ccc2c1` (stereo partly specified), the MIC50 with Pichia kudriavzevii was 0.5 µg/mL (≈ 1.17 µM); with Aspergillus fumigatus it was 2 µg/mL (≈ 4.68 µM); with Candida albicans [4], 0.25 µg/mL (≈ 0.585 µM); in the assay with Candida tropicalis it was 0.5 µg/mL (≈ 1.17 µM); in the assay on Cryptococcus neoformans it was 0.5 µg/mL (≈ 1.17 µM).
With `C[C@H](C(=O)NC(Cn1cncn1)C(=O)c1ccccc1)c1ccc(-c2ccccc2)c(F)c1` (stereo partly specified), the MIC50 in the assay with Pichia kudriavzevii was 1 µg/mL (≈ 2.26 µM); in the assay with Aspergillus fumigatus, 2 µg/mL (≈ 4.52 µM); in the assay with Candida albicans [4], 0.5 µg/mL (≈ 1.13 µM); in the assay on Candida tropicalis it was 0.25 µg/mL (≈ 0.565 µM); in the assay with Cryptococcus neoformans, 0.5 µg/mL (≈ 1.13 µM).
`COC(=O)[C@@H](Cn1ccnc1)NC(=O)[C@@H](C)c1cccc(C(=O)c2ccccc2)c1`: the MIC50 in the assay with Pichia kudriavzevii is 2 µg/mL (≈ 4.93 µM); with Aspergillus fumigatus, 4 µg/mL (≈ 9.87 µM); in the assay with Candida albicans [4] it was 1 µg/mL (≈ 2.47 µM); in the assay with Candida tropicalis it was 0.5 µg/mL (≈ 1.23 µM); in the assay on Cryptococcus neoformans, 1 µg/mL (≈ 2.47 µM).
As for `COC(=O)[C@@H](Cn1cncn1)NC(=O)[C@@H](C)c1ccc(-c2ccccc2)c(F)c1`, the MIC50 in the assay on Pichia kudriavzevii is 1 µg/mL (≈ 2.52 µM); in the assay with Aspergillus fumigatus, 4 µg/mL (≈ 10.1 µM); in the assay with Candida albicans [4], 0.5 µg/mL (≈ 1.26 µM); with Candida tropicalis, 2 µg/mL (≈ 5.05 µM); with Cryptococcus neoformans, 2 µg/mL (≈ 5.05 µM).
As for `CC(C)OC(=O)[C@@H](Cn1cncn1)NC(=O)[C@@H](C)c1ccc(-c2ccccc2)c(F)c1`, the MIC50 in the assay on Pichia kudriavzevii was 2 µg/mL (≈ 4.71 µM); in the assay with Aspergillus fumigatus, > 8 µg/mL; with Candida albicans [4] it was 1 µg/mL (≈ 2.36 µM); in the assay with Candida tropicalis it was 0.5 µg/mL (≈ 1.18 µM); in the assay on Cryptococcus neoformans it was 1 µg/mL (≈ 2.36 µM).
As to `C[C@H](C(=O)NC(Cn1cncn1)C(=O)c1ccccc1)c1cccc(C(=O)c2ccccc2)c1` (stereo partly specified), the MIC50 was found to be 1 µg/mL (≈ 2.21 µM) with Pichia kudriavzevii; 4 µg/mL (≈ 8.84 µM) in the assay on Aspergillus fumigatus; 5 µg/mL (≈ 11 µM) in the assay with Candida albicans [4]; 0.5 µg/mL (≈ 1.1 µM) with Candida tropicalis; 0.5 µg/mL (≈ 1.1 µM) with Cryptococcus neoformans.
As to `C[C@H](C(=O)N[C@H](Cn1ccnc1)C(=O)NC1CCCCC1)c1cccc(C(=O)c2ccccc2)c1`, the MIC50 with Pichia kudriavzevii is 1 µg/mL (≈ 2.12 µM); with Aspergillus fumigatus, > 8 µg/mL; in the assay on Candida albicans [4], 1 µg/mL (≈ 2.12 µM); with Candida tropicalis, 2 µg/mL (≈ 4.23 µM); with Cryptococcus neoformans, 0.5 µg/mL (≈ 1.06 µM).
Take `COc1ccc2cc([C@H](C)C(=O)N[C@H](Cn3ccnc3)C(=O)NC(C)C)ccc2c1`: the MIC50 was determined as 0.25 µg/mL (≈ 0.612 µM) with Pichia kudriavzevii; 4 µg/mL (≈ 9.79 µM) in the assay on Aspergillus fumigatus; 0.25 µg/mL (≈ 0.612 µM) with Candida albicans [4]; 1 µg/mL (≈ 2.45 µM) in the assay on Candida tropicalis; 0.5 µg/mL (≈ 1.22 µM) in the assay on Cryptococcus neoformans.
Consider `COc1ccc2cc([C@H](C)C(=O)N[C@H](Cn3ccnc3)C(=O)NC3CCCCC3)ccc2c1`, for which the MIC50 in the assay with Pichia kudriavzevii was determined as 0.5 µg/mL (≈ 1.11 µM); in the assay with Aspergillus fumigatus, 4 µg/mL (≈ 8.92 µM); in the assay on Candida albicans [4], 1 µg/mL (≈ 2.23 µM); with Candida tropicalis, 0.5 µg/mL (≈ 1.11 µM); in the assay on Cryptococcus neoformans, 1 µg/mL (≈ 2.23 µM). Moreover, the result in the assay on Candida albicans [7] was Active.
In the case of `COC(=O)[C@@H](Cn1cncn1)NC(=O)[C@@H](C)c1ccc2cc(OC)ccc2c1`, the MIC50 in the assay on Pichia kudriavzevii turned out to be 1 µg/mL (≈ 2.61 µM); in the assay on Aspergillus fumigatus, 4 µg/mL (≈ 10.5 µM); in the assay on Candida albicans [4], 0.25 µg/mL (≈ 0.654 µM); with Candida tropicalis it was 0.25 µg/mL (≈ 0.654 µM); in the assay on Cryptococcus neoformans, 0.25 µg/mL (≈ 0.654 µM).
`COc1ccc2cc([C@H](C)C(=O)N[C@H](Cn3ccnc3)C(=O)OC(C)C)ccc2c1`: the MIC50 is 0.25 µg/mL (≈ 0.611 µM) in the assay with Pichia kudriavzevii; 4 µg/mL (≈ 9.77 µM) in the assay with Aspergillus fumigatus; 0.5 µg/mL (≈ 1.22 µM) in the assay with Candida albicans [4]; 1 µg/mL (≈ 2.44 µM) in the assay with Candida tropicalis; 0.5 µg/mL (≈ 1.22 µM) in the assay on Cryptococcus neoformans.
As for `C[C@H](C(=O)N[C@H](Cn1ccnc1)C(=O)NC1CCCCC1)c1ccc(-c2ccccc2)c(F)c1`, the MIC50 with Pichia kudriavzevii is 2 µg/mL (≈ 4.32 µM); in the assay on Aspergillus fumigatus, > 8 µg/mL; in the assay with Candida albicans [4], 2 µg/mL (≈ 4.32 µM); in the assay with Candida tropicalis, 1 µg/mL (≈ 2.16 µM); in the assay on Cryptococcus neoformans it was 4 µg/mL (≈ 8.65 µM).

The values are drawn from ChEMBL document CHEMBL5113529, “Design, Synthesis, and Biological Evaluation of Dual-Target COX-2/CYP51 Inhibitors for the Treatment of Fungal Infectious Diseases” (J Med Chem, 2022).
